According to ChEMBL document CHEMBL1944593, “Heteroaromatic-aminomethyl quinolones: potent and selective iNOS inhibitors” (Bioorg Med Chem Lett, 2012):

Tests used:
[1] = biological target: Nitric oxide synthase, inducible (Homo sapiens, UniProt P35228); experiment: Inhibition of human iNOS expressed in HEK293 cells assessed as NO production by 2,3-diaminonapthalene-based fluorescence assay; assay type: cell-based
[2] = biological target: T1, Nitric oxide synthase 3 (Homo sapiens, UniProt P29474); experiment: Inhibition of human eNOS expressed in HEK293 cells assessed as NO production by 2,3-diaminonapthalene-based fluorescence assay; assay type: cell-based
T1 sequence (P29474 whole entry): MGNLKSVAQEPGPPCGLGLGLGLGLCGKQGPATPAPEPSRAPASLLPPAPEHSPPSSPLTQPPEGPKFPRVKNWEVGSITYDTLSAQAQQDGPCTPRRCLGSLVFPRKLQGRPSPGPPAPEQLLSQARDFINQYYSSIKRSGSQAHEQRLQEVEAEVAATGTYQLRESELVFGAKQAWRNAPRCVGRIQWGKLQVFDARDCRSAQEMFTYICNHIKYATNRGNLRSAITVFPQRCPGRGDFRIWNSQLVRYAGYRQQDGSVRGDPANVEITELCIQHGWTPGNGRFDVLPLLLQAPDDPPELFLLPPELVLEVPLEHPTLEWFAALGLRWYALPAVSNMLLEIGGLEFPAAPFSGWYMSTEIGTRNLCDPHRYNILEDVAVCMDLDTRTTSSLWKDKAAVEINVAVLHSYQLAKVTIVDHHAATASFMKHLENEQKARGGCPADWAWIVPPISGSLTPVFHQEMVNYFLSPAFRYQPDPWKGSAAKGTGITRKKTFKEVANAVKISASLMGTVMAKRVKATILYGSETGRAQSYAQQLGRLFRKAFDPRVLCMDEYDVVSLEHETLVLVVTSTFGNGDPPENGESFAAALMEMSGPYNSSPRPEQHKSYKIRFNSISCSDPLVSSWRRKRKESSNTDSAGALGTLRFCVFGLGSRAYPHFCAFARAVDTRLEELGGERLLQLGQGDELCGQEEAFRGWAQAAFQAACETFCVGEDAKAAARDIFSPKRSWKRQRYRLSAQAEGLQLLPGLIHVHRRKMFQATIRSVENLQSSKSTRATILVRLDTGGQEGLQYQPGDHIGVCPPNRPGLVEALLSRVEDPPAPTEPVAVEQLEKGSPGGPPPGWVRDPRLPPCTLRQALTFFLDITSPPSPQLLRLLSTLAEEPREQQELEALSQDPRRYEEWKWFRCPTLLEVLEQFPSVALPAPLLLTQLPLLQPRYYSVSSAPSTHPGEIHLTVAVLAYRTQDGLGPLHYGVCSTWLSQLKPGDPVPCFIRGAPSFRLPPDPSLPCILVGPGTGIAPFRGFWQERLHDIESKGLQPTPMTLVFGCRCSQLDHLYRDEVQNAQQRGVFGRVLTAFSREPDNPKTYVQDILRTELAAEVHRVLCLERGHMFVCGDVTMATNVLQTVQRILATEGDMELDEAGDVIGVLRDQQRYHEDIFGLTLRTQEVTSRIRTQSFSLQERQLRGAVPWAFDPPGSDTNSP

[3] = biological target: Nitric oxide sythases; iNOS & nNOS (Homo sapiens) (UniProt P29475+P35228); experiment: Selectivity ratio of IC50 for human nNOS to IC50 for human iNOS
Chain of Nitric oxide sythases; iNOS & nNOS (Homo sapiens) (P29475 whole entry, looked up): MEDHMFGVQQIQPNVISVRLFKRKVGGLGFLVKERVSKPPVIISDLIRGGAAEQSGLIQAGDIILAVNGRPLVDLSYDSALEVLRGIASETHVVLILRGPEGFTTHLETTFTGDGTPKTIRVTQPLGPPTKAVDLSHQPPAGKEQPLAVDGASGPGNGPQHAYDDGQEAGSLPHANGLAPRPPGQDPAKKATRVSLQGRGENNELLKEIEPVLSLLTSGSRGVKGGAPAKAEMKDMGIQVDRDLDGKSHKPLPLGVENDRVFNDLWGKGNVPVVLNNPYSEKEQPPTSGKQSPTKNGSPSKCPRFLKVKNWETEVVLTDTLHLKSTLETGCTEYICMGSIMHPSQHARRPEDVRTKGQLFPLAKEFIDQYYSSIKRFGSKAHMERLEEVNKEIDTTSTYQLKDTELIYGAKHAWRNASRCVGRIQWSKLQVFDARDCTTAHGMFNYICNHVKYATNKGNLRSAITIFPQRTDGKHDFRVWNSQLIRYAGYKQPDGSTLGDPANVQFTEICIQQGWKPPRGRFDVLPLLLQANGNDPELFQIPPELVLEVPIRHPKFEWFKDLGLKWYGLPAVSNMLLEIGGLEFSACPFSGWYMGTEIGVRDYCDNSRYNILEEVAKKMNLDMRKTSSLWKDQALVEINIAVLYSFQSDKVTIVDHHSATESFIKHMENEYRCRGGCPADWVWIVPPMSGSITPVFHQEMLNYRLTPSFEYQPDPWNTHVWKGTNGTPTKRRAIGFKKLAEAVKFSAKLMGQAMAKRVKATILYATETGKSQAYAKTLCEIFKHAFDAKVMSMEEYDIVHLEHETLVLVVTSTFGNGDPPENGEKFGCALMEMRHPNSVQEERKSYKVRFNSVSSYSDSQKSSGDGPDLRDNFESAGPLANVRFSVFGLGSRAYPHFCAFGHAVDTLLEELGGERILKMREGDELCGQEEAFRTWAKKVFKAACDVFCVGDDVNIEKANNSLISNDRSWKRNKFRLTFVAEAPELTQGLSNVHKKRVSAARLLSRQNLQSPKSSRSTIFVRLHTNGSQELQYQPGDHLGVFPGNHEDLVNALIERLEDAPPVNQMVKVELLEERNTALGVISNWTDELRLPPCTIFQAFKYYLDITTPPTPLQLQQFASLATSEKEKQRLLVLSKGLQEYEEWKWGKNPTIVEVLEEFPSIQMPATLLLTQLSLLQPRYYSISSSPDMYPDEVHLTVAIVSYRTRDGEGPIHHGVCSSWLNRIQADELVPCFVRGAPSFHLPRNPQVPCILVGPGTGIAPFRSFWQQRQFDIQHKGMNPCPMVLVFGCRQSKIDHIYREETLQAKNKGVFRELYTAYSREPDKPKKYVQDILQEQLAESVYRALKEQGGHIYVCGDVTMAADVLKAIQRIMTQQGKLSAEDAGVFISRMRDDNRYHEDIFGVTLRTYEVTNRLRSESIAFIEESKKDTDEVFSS
Chain of Nitric oxide sythases; iNOS & nNOS (Homo sapiens) (P35228 whole entry, looked up): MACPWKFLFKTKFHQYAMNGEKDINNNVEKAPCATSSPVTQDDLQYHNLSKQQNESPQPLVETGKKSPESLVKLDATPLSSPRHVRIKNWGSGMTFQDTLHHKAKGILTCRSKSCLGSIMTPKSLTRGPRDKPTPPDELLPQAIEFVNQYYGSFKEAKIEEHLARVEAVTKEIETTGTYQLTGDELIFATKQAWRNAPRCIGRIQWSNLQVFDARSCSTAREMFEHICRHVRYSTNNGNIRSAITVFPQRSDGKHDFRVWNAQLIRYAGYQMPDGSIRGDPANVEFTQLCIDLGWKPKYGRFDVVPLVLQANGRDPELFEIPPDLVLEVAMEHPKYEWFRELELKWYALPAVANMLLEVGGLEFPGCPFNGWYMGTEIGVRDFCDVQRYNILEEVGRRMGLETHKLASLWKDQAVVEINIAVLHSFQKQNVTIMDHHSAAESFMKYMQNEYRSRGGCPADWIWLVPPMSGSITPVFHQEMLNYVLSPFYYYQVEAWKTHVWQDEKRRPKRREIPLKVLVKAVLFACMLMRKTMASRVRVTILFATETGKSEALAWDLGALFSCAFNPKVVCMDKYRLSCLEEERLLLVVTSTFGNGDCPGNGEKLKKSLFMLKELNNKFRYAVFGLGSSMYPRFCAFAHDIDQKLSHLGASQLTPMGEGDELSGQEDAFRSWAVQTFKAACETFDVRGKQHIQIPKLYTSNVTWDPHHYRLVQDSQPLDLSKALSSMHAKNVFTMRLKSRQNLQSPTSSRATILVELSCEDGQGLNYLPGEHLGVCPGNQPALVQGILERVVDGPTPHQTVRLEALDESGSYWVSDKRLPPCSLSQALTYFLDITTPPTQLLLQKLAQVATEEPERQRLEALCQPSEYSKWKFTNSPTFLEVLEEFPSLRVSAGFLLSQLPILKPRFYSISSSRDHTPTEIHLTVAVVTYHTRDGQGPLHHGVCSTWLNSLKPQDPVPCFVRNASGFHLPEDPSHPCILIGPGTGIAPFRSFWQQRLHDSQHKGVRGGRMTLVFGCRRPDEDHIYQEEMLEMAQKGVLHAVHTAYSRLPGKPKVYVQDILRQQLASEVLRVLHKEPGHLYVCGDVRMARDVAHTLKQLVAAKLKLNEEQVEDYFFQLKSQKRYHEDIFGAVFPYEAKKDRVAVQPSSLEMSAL

[4] = Half life in mouse liver microsomes; assay type: ADME, Microsome
[5] = biological target: Nitric oxide synthase 1 (Homo sapiens, UniProt P29475); experiment: Inhibition of human nNOS expressed in HEK293 cells assessed as NO production by 2,3-diaminonapthalene-based fluorescence assay; assay type: cell-based
Chain of Nitric oxide synthase 1 (P29475 whole entry): as the sequence (P29475 whole entry, looked up) above

[6] = species: Homo sapiens; experiment: Selectivity ratio of IC50 for human eNOS to IC50 for human iNOS
[7] = biological target: T2, Nitric oxide synthase 3 (Homo sapiens) (UniProt P29474); experiment: Inhibition of human eNOS expressed in HEK293 cells assessed as NO production at 30 uM by 2,3-diaminonapthalene-based fluorescence assay; assay type: cell-based
T2 sequence (whole entry): T1 sequence (P29474 whole entry)

[8] = test system: Mus musculus; experiment: Antiinflammatory activity in po dosed mouse assessed as reduction in LPS-induced nitatre level in plasma; assay type: functional
[9] = Volume of distribution at steady state in mouse; assay type: ADME, organism-based; conditions: in vivo, read-out: Vdss
[10] = AUC in mouse at 10 mg/kg, po; assay type: ADME, organism-based; set-up: dose 10 mg/kg, route oral; conditions: plasma
[11] = biological target: T3, Nitric oxide synthase, inducible (Mus musculus, UniProt P29477); experiment: Inhibition of mouse iNOS
T3 sequence (P29477 whole entry): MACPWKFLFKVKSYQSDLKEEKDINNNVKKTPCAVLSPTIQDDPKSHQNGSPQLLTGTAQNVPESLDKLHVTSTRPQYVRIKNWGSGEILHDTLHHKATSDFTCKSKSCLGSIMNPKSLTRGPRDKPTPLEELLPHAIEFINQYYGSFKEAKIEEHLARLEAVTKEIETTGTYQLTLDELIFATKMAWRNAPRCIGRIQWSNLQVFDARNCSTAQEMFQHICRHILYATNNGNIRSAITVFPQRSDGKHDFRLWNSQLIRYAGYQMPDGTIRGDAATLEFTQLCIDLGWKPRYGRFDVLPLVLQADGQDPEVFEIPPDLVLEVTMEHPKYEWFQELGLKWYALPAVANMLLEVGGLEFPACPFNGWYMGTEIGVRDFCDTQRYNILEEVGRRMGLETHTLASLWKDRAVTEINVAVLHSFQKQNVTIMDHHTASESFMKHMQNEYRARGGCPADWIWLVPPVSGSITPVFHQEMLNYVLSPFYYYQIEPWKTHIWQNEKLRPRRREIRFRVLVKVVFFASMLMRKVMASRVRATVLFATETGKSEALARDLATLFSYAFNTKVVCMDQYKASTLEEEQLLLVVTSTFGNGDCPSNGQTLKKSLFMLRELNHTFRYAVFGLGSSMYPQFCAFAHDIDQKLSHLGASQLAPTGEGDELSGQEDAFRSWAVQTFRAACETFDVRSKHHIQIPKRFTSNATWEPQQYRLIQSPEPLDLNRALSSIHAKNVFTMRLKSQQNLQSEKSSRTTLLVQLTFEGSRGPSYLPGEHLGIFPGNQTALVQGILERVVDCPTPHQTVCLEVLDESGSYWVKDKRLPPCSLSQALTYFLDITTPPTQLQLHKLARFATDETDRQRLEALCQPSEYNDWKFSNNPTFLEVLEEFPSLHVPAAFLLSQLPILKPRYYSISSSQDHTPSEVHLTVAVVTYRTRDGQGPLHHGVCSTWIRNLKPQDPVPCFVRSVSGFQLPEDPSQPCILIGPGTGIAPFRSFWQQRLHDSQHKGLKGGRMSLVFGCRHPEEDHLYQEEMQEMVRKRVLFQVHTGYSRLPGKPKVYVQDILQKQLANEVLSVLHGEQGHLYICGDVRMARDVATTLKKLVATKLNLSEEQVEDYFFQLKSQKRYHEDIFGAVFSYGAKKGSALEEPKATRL

[12] = test system: Mus musculus; experiment: Antiinflammatory activity in mouse assessed as reduction in LPS-induced nitatre level in plasma at 30 mg/kg, po; assay type: functional; set-up: scale not given: the % may be the effect or the level left
[13] = Half life in mouse; assay type: ADME, organism-based; conditions: in vivo
[14] = Cmax in mouse at 10 mg/kg, po; assay type: ADME, organism-based; set-up: dose 10 mg/kg, route oral; conditions: in vivo
[15] = Oral bioavailability in mouse at 10 mg/kg; assay type: ADME, organism-based; conditions: in vivo
[16] = Plasma clearance in mouse; assay type: ADME, organism-based

Chain of Nitric oxide synthase, inducible (Homo sapiens, UniProt P35228) (P35228 whole entry): as the sequence (P35228 whole entry, looked up) above

SMILES	IC50 [1]	IC50 [2]	Ratio IC50 [3]	IC50 [5]	Ratio IC50 [6]	also measured
O=c1cc(CN(Cc2ccccn2)c2cnccn2)c2ccc(F)c(F)c2[nH]1	78 nM	11000 nM	6	440 nM	140	half-life [4]: < 0.333 h
Cc1cc(N(Cc2cc(=O)[nH]c3c(F)c(F)ccc23)c2cccc(Cl)c2)ncn1	53 nM	> 30000 nM	3	160 nM	> 500	inhibition [7]: < 50%
O=c1cc(Cn2c(C3CCC3)nc3nccnc32)c2ccc(F)c(F)c2[nH]1	91 nM					ED50 [8]: 1 mg/kg; Vd [9]: 0.4 L/kg; AUC [10]: 25000 ng·h/mL; IC50 [11]: 500 nM
O=c1cc(CN(c2cccnc2)c2cccc(Cl)c2)c2ccc(F)c(F)c2[nH]1	77 nM	14000 nM	5	370 nM	180	
Fc1ccc2c(CN(c3cccc(Cl)c3)c3ncccn3)cncc2c1F	200 nM				> 1000	
Cc1cccnc1N(Cc1cc(=O)[nH]c2c(F)c(F)ccc12)c1cccc(Cl)c1	350 nM	> 30000 nM			> 85	inhibition [7]: < 50%
O=c1cc(CN(c2ccncc2)c2cccc(Cl)c2)c2ccc(F)c(F)c2[nH]1	130 nM	23000 nM	2	240 nM	170	
CN(C)c1cc(N(Cc2cc(=O)[nH]c3c(F)c(F)ccc23)c2cccc(Cl)c2)ncn1	28 nM	> 30000 nM	20	500 nM	> 1000	inhibition [7]: < 50%
O=c1cc(CN(c2cccc(Cl)c2)c2cccnn2)c2ccc(F)c(F)c2[nH]1	43 nM	21000 nM	8	360 nM	500	
[O-][n+]1cc(CN(c2cccc(Cl)c2)c2ncccn2)c2ccc(F)c(F)c2c1	17 nM		9		> 1000	
O=c1cc(CN(Cc2ccc(Cl)cc2)c2cnccn2)c2ccc(F)c(F)c2[nH]1	77 nM	7100 nM	2	120 nM	90	half-life [4]: < 0.333 h
O=c1cc(CN(c2cccc(Cl)c2)c2ccccn2)c2ccc(F)c(F)c2[nH]1	31 nM	> 30000 nM	5	170 nM	> 1000	inhibition [7]: < 50%
Cc1nccc(N(Cc2cc(=O)[nH]c3c(F)c(F)ccc23)c2cccc(Cl)c2)n1	33 nM	7500 nM	7	213 nM	230	half-life [4]: 1.5 h; Activity [12]: 55%
O=c1cc(CN(c2cncnc2)c2cccc(Cl)c2)c2ccc(F)c(F)c2[nH]1	210 nM	79000 nM	8	1600 nM	375	
O=c1cc(CN(Cc2cccc(Cl)c2)c2cnccn2)c2ccc(F)c(F)c2[nH]1	220 nM	8300 nM	2	330 nM	40	half-life [4]: < 0.333 h
COc1cc(N(Cc2cc(=O)[nH]c3c(F)c(F)ccc23)c2cccc(Cl)c2)ncn1	61 nM	> 30000 nM	2	130 nM	> 500	inhibition [7]: < 50%
CN(C)c1nccc(N(Cc2cc(=O)[nH]c3c(F)c(F)ccc23)c2cccc(Cl)c2)n1	1300 nM	> 30000 nM			> 20	inhibition [7]: < 50%
O=c1cc(CN(c2ccccc2)c2cccc(Cl)c2)c2ccc(F)c(F)c2[nH]1	1500 nM	> 30000 nM			> 20	inhibition [7]: < 50%

The next molecules have a lower IC50 [1] than those just listed; values first:

IC50 [1]	IC50 [2]	Ratio IC50 [3]	IC50 [5]	Ratio IC50 [6]	SMILES	also measured
14 nM	13000 nM	11	150 nM	1000	O=c1cc(CN(c2cccc(Cl)c2)c2ccncn2)c2ccc(F)c(F)c2[nH]1	
13 nM	6400 nM	8	100 nM	500	O=c1cc(CN(Cc2ccccc2)c2cnccn2)c2ccc(F)c(F)c2[nH]1	
13 nM	5500 nM	5	69 nM	425	O=c1cc(CN(c2cccc(Cl)c2)c2ncccn2)c2ccc(F)c(F)c2[nH]1	
12 nM	11000 nM	5	64 nM	900	O=c1cc(CN(Cc2ccccc2F)c2cnccn2)c2ccc(F)c(F)c2[nH]1	
12 nM	12000 nM	5	60 nM	1000	O=c1cc(CN(Cc2ccccc2Cl)c2cnccn2)c2ccc(F)c(F)c2[nH]1	
11 nM	8300 nM		62 nM	730	Cn1ncc2c(N(Cc3cc(=O)[nH]c4c(F)c(F)ccc34)c3cccc(Cl)c3)ncnc21	half-life [4]: < 0.5 h
10 nM	13000 nM	5	46 nM	1300	Cc1ccccc1CN(Cc1cc(=O)[nH]c2c(F)c(F)ccc12)c1cnccn1	
5 nM	1500 nM	2	12 nM	300	O=c1cc(CN(c2cccc(Cl)c2)c2cnccn2)c2ccc(F)c(F)c2[nH]1	ED50 [8]: 3.6 mg/kg; Vd [9]: 1.7 L/kg; AUC [10]: 120 ng·h/mL; half-life [13]: 2.1 h; Cmax [14]: 45 ng/mL; bioavailability [15]: 3%; clearance [16]: 34 mL/min/kg; Activity [12]: 80%; IC50 [11]: 5 nM
